Laboratory results published in patent US20070092474A1, “Carnitine salt, preliposome which contains it and dermocosmetic formula for topical use based upon said carnitine salt” (priority 2003, published 2007).
Several values for one entry are separate records, joined by “and”; a condition that tells them apart may be missing. Equal values may be shown once.

Tested on: skin blemishes caused by cellulite and localised adiposity
Experiment: Liquid crystal contact thermography of the thighs, clinical score of cellulite stage
Format: in vivo, female volunteers
Design: key: 9: IV SERIOUS; 8: IV AVERAGE; 7: IV INITIAL; 6: III SERIOUS; 5: III AVERAGE; 4: III INITIAL; 3: II SERIOUS; 2: II AVERAGE; 1: II INITIAL
Conditions: clinical score per volunteer, MEDIA = mean
Experimental: A dermatological test was carried out on 25 female volunteers between 18 and 65 years of age, with the backing of the Department of Physiological and Pharmacological Sciences of the university of Pavia. The investigation aimed to check the modification of three anatomical-physiological parameters, qualifying the unaesthetic-functional aspect connected to the manifestation of so-called cellulite and subcutaneous hypertriglyceridaemia: measurement of the skin folds, measurement of the circumference of the thighs, thermographic skin measurement.
The test stretched out over 60 days with the continual daily application of the aforementioned preparation of cosmetic gel. The measurements were carried out after 15, 30 and 60 days. The detail of the test protocol and of the results obtained is shown hereafter.
25 female volunteers aged between 18 and 65, with the presence of skin blemishes caused by cellulite and localised adiposity, were selected according to the following criteria: good general state of health, absence of skin pathologies, not being under medication, commitment not to vary the normal daily routine, no medical history of atopy.
The samples were tested by uniformly applying them on “Glute SX Glute DJ (Femoris Posto SX Femoris Posto DX Femoris Ant. SX Femoris Ant. DX” every day at least once per day for the entire duration of the test.
At the time of inclusion in the study and during the subsequent checks after 15 days (T15), after 30 days (T30) and after 60 days (T60) of treatment the following instrumental measurements were taken: • plicometry (through a plicometer) • thigh circumference (through a measuring tape broken into millimetres) • contact thermography (through liquid crystal thermographic plates).
For its part, thermography allows the extension and the gravity of the microcirculatory skin damage and, consequently, the subcutaneous damage, to be evaluated based upon the regional skin temperature variations. Such temperature variations reveal the presence of subschemic areas (cold areas, due to regional hypothermia) or of phenomena of capillary-venous stasis (hot areas). The diagnostic properties of thermography are relative to the recognition of maldistribution of microcirculation. In particular, “liquid crystal contact thermography” was used, in which the property of cholesteric liquid crystals (of which the plates are made up) of modifying their spatial arrangement according to the temperature is exploited; each spatial modification corresponds to a different refraction of the light rays which thus assume different colours according to the incidence of the light on the faces of the cholesteric microcrystals: in practice, when the thermographic plates are placed upon the skin of the zone to be investigated, these assume different colourations according to the skin temperature. Conventionally, the thermographic images observed during the course of the different stages of evolution of the Edematous fibrosclerotic panniculopathy from stasis of the lower limbs can be classified in four, or more, thermographic stages; the latter approximately correspond to the gravity of the four istologic stages in which the moments of evolution of the panniculosis are divided.

For “carnitine hydroxycitrate [carnitine hydroxy citrate]”, the “LEFT THIGH THERMOGRAPHY 1/3 T0” value was 5 (9×) and 4 (3×) and 7 (4×) and 2 and 6 (7×) and 3, the “LEFT THIGH THERMOGRAPHY 1/3 T0” value (mean) was 5.3 and the “LEFT THIGH THERMOGRAPHY 1/3 T15” value was 5 (9×) and 4 (5×) and 3 (3×) and 7 (2×) and 2 and 6 (5×). The “LEFT THIGH THERMOGRAPHY 1/3 T15” value (mean) was 4.8, the “LEFT THIGH THERMOGRAPHY 1/3 T30” value was 2 (7×) and 4 (10×) and 3 (2×) and 6 (3×) and 5 (3×) and the “LEFT THIGH THERMOGRAPHY 1/3 T30” value (mean) was 3.7. For the same substance, the “LEFT THIGH THERMOGRAPHY 1/3 T60” value was 2 (11×) and 3 (7×) and 4 (4×) and 5 (2×) and 6, the “LEFT THIGH THERMOGRAPHY 1/3 T60” value (mean) was 3.0 and the “LEFT THIGH THERMOGRAPHY 2/3 T0” value was 4 (5×) and 5 (10×) and 3 (3×) and 7 and 2 and 6 (5×). For the same substance, the “LEFT THIGH THERMOGRAPHY 2/3 T0” value (mean) was 4.7, the “LEFT THIGH THERMOGRAPHY 2/3 T15” value was 3 (7×) and 4 (11×) and 5 (3×) and 6 (3×) and 2 and the “LEFT THIGH THERMOGRAPHY 2/3 T15” value (mean) was 4.0. For the same substance, the “LEFT THIGH THERMOGRAPHY 2/3 T30” value was 2 (6×) and 3 (12×) and 4 (6×) and 5, the “LEFT THIGH THERMOGRAPHY 2/3 T30” value (mean) was 3.1 and the “LEFT THIGH THERMOGRAPHY 2/3 T60” value was 2 (9×) and 3 (11×) and 4 (4×) and 1. For the same substance, the “LEFT THIGH THERMOGRAPHY 2/3 T60” value (mean) was 2.7, the “LEFT THIGH THERMOGRAPHY 3/3 T0” value was 3 (3×) and 5 (3×) and 4 (16×) and 2 (2×) and 7 and the “LEFT THIGH THERMOGRAPHY 3/3 T0” value (mean) was 4.0. The “LEFT THIGH THERMOGRAPHY 3/3 T15” value was 3 (7×) and 4 (11×) and 5 (3×) and 2 (4×), the “LEFT THIGH THERMOGRAPHY 3/3 T15” value (mean) was 3.5 and the “LEFT THIGH THERMOGRAPHY 3/3 T30” value was 2 (7×) and 3 (11×) and 4 (5×) and 1 (2×). The “LEFT THIGH THERMOGRAPHY 3/3 T30” value (mean) was 2.8, the “LEFT THIGH THERMOGRAPHY 3/3 T60” value was 1 (3×) and 3 (11×) and 2 (10×) and 4 and the “LEFT THIGH THERMOGRAPHY 3/3 T60” value (mean) was 2.4. The “RIGHT THIGH THERMOGRAPHY 1/3 T0” value was 5 (10×) and 4 (3×) and 7 (3×) and 3 (2×) and 6 (6×) and 8, the “RIGHT THIGH THERMOGRAPHY 1/3 T0” value (mean) was 5.3 and the “RIGHT THIGH THERMOGRAPHY 1/3 T15” value was 5 (9×) and 4 (6×) and 7 (3×) and 3 (2×) and 6 (5×). For the same substance, the “RIGHT THIGH THERMOGRAPHY 1/3 T15” value (mean) was 5.0, the “RIGHT THIGH THERMOGRAPHY 1/3 T30” value was 2 (7×) and 4 (9×) and 3 (2×) and 5 (4×) and 6 (2×) and 7 and the “RIGHT THIGH THERMOGRAPHY 1/3 T30” value (mean) was 3.8. The “RIGHT THIGH THERMOGRAPHY 1/3 T60” value was 2 (11×) and 3 (6×) and 4 (5×) and 5 (2×) and 6, the “RIGHT THIGH THERMOGRAPHY 1/3 T60” value (mean) was 3.0 and the “RIGHT THIGH THERMOGRAPHY 2/3 T0” value was 4 (6×) and 5 (11×) and 7 and 3 (3×) and 6 (4×). For the same substance, the “RIGHT THIGH THERMOGRAPHY 2/3 T0” value (mean) was 4.8, the “RIGHT THIGH THERMOGRAPHY 2/3 T15” value was 3 (5×) and 4 (12×) and 5 (4×) and 6 (3×) and 2 and the “RIGHT THIGH THERMOGRAPHY 2/3 T15” value (mean) was 4.1. The “RIGHT THIGH THERMOGRAPHY 2/3 T30” value was 2 (4×) and 3 (13×) and 4 (7×) and 5, the “RIGHT THIGH THERMOGRAPHY 2/3 T30” value (mean) was 3.2 and the “RIGHT THIGH THERMOGRAPHY 2/3 T60” value was 2 (8×) and 3 (12×) and 4 (4×) and 1. For the same substance, the “RIGHT THIGH THERMOGRAPHY 2/3 T60” value (mean) was 2.8, the “RIGHT THIGH THERMOGRAPHY 3/3 T0” value was 3 (4×) and 5 (4×) and 4 (15×) and 2 and 7 and the “RIGHT THIGH THERMOGRAPHY 3/3 T0” value (mean) was 4.0. The “RIGHT THIGH THERMOGRAPHY 3/3 T15” value was 3 (7×) and 4 (11×) and 5 (3×) and 2 (4×), the “RIGHT THIGH THERMOGRAPHY 3/3 T15” value (mean) was 3.5 and the “RIGHT THIGH THERMOGRAPHY 3/3 T30” value was 2 (7×) and 3 (10×) and 4 (7×) and 1. For the same substance, the “RIGHT THIGH THERMOGRAPHY 3/3 T30” value (mean) was 2.9, the “RIGHT THIGH THERMOGRAPHY 3/3 T60” value was 1 (3×) and 3 (12×) and 2 (9×) and 4 and the “RIGHT THIGH THERMOGRAPHY 3/3 T60” value (mean) was 2.4.
